# Several values for one entry are separate records, joined by “and”; a condition that tells them apart may be missing. Identical values can stand only once.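 Dose response: 5 concentrations. Exposure: 48 h. Format: 96-well plates. Endpoint: linear interpolation; highest concentration if not reached. Here, GI50 denotes the concentration required for 50% inhibition of growth. TGI marks complete inhibition of growth.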
# Experiments:
# Experiment in all cases: inhibition of tumour cell growth, NCI panel, 48 h
# [1] = test system: A498 renal
# [2] = test system: HL-60(TB) leukemia
# [3] = test system: HT29 colon
# [4] = test system: LOX IMVI melanoma
# [5] = test system: MDA-N
# [6] = test system: SF-268 CNS
# [7] = test system: SNB-75 CNS
# [8] = test system: SW-620 colon
# [9] = test system: COLO 205 colon
# [10] = test system: NCI-H23 lung
# [11] = test system: SF-539 CNS
# [12] = test system: NCI-H522 lung
Molecule,TGI [1],TGI [2] [µM],TGI [3] [µM],TGI [4] [µM],TGI [5] [µM],TGI [6] [µM],TGI [7] [µM],TGI [8] [µM],TGI [9] [µM],TGI [10] [µM],TGI [11] [µM],GI50 [2] [µM],GI50 [3],GI50 [4] [µM],GI50 [10] [µM],GI50 [12],TGI [12] [µM],GI50 [6] [µM],GI50 [7] [µM],GI50 [1]
N#Cc1nc(C(=O)c2ccccc2)oc1N,> 100 µM,> 100,> 100,> 100,> 100,> 100,8.45,> 100,,,,,,,,,,,,
COC1OC2COC(c3ccccc3)OC2C(OC(=S)c2ccccc2)C1O (stereo not given),> 100 µM,,> 100,20.5,> 100,> 100,,> 100,> 100,> 100,27.7,,,,,,,,,
N#CC(NNC(=O)c1c(Cl)c(Cl)c(Cl)c(Cl)c1-c1nc2ccc(C(=O)c3ccccc3)cc2[nH]1)c1cccc(Oc2ccccc2)c1 (stereo not given),63.4 µM,83.6,> 100,> 100,49.6,,72.8,> 100,46.1,90.9,43.4,,,,,,,,,
H-KIFKKFKTIIKKVWRIFGRF-NH2,,57.1,> 100,> 100,,5.45,6.99,,,7.51,,5.23,2.92 µM,2.98,2.44,2.34 µM,> 100,2.08,2.5,
S=C1NNC(=S)NN1,> 1 µM,> 1,> 1,0.328,> 1,> 1,,> 1,> 1,> 1,> 1,,,,,,> 1,,,
O=C(Nc1ccccc1C(=O)O)C(=Cc1ccccc1O)NC(=O)c1ccccc1,> 100 µM,> 100,> 100,> 100,,> 100,> 100,> 100,> 100,> 100,> 100,,,,,,> 100,,,
Cc1cccc(-c2cc(=O)c3cc(C)cnc3[nH]2)c1,> 24.2 µM,0.355,,> 100,,> 100,> 100,,0.382,> 35.9,2.62,,,,,,0.259,,,
Cc1cnc2[nH]c(-c3sccc3C)cc(=O)c2c1,> 100 µM,,10.3,> 100,2.96,> 100,> 100,> 100,> 25.5,> 100,> 91.6,,,,,,4.49,,,
CC1[C@@H]2C[C@@H]3O[C@@]34[C@H]3CCC5Cc6nc7c(nc6C[C@@]5(C)C3(O)CC(=O)[C@@]24CO[C@]12OC(C)(C)CC2O)CC1CC[C@@H]2C3=C[C@H]4O[C@@]5(O[C@@](C)(CO)C[C@@H]5O)C(C)[C@@]4(O)[C@]3(C)[C@@H](O)CC2[C@]1(C)C7 (stereo not given in full),0.0643 µM,0.0305,0.0945,> 3.52,,0.683,0.028,0.49,0.156,0.467,0.115,,,,,,0.653,,,
C/C(=C\c1ccccc1)n1c(=O)cc(C)n1C,,,> 100,> 100,> 100,> 100,> 100,> 100,> 100,> 100,> 100,,,,,,,,,
CC(=O)O[C@H]1CC[C@]2(C=O)[C@H]3CC[C@]4(C)[C@@H](C5=CC(=O)OC5)CC[C@]4(O)[C@@H]3CC[C@]2(O)C1,1.16 µM,5.18,1.05,0.933,0.97,0.806,,4.85,1.64,0.373,0.26,,,,,,0.357,,,
CCCCCC(=O)OCC1(CO)C/C(=C/CC(C(C)C)C(C)C)C(=O)O1 (stereo not given),> 75 µM,,> 75,20.5,> 75,> 75,> 75,> 75,> 75,> 75,,,,,,,27.7,,,
CC1CN=C(N(C(=O)Nc2ccccc2)C2CCCCC2)S1 (stereo not given),34.7 µM,35.6,32.9,27.1,30.1,46,28.9,28.5,37,33.8,43.2,,,,,,,,,
Cc1cc(N)c2cc(NC(=O)CCCCCCCCC(=O)Nc3ccc4nc(C)cc(N)c4c3)ccc2n1,74 µM,> 100,> 100,> 100,,> 100,> 100,> 100,> 100,> 100,26.5,,,,,,5.36,,,
CC(C)(C)C1=CC(O)(c2c3ccccc3c(C3(O)C=C(C(C)(C)C)C(=O)C(C(C)(C)C)=C3)c3ccccc23)C=C(C(C)(C)C)C1=O,0.65 µM,,> 100,> 100,> 100,> 100,> 100,> 100,> 100,> 100,> 100,,,,,,> 100,,,
CC(=O)c1nc(C#N)c(N)o1,> 100 µM,,> 100,> 100,> 100,> 100,> 100,> 100,> 100,> 100,> 100,,,,,,> 100,,,
CC(NC1=NCCO1)c1ccco1 (stereo not given),> 100 µM,> 100,> 100,> 100,> 100,> 100,,> 100,> 100,> 100,> 100,,,,,,> 100,,,
O=c1[nH]c(=O)c2c([nH]1)[nH]c1ccccc12,> 100 µM,,> 100,> 100,> 100,> 100,> 100,> 100,> 100,> 100,> 100,,,,,,> 100,,,
O=C(c1cccs1)N(C(=O)N1CCCCC1)c1ccccc1,> 100 µM,> 100,> 100,> 100,> 100,> 100,88.7,> 100,> 100,> 100,> 100,,,,,,,,,
C/C(=N/NC(=O)c1ccccc1Nc1ccccc1C(=O)N/N=C(\C)c1ccc(C)cc1)c1ccc(C)cc1,> 100 µM,> 100,> 100,,> 100,> 100,> 100,> 100,> 100,> 100,,,,,,,,,,
O=C1/C(=C/Cc2ccco2)N=C(c2ccccc2)N1c1nc2c(Cl)cc(Cl)cc2s1,43.4 µM,49.9,98.2,> 100,47.9,89.2,,> 100,> 100,,61.3,,,,,,,,,

Molecule,TGI [1],TGI [2] [µM],TGI [3] [µM],TGI [4] [µM],TGI [5] [µM],TGI [6] [µM],TGI [7] [µM],TGI [8] [µM],TGI [9] [µM],TGI [10] [µM],TGI [11] [µM],GI50 [2] [µM],GI50 [3],GI50 [4] [µM],GI50 [10] [µM],GI50 [12],TGI [12] [µM],GI50 [6] [µM],GI50 [7] [µM],GI50 [1]
COc1cc(C)c(S(=O)(=O)N(CCCN)OCCCN)c(C)c1C,> 100 µM,,> 100,84.6,> 100,> 100,> 100,> 100,41.2,> 100,,,,,,,51.7,,,
COc1cc(OC)cc(-c2nc3ccccc3c(=O)[nH]2)c1,82.2 µM,> 100,> 100,> 100,> 100,> 100,58.3,> 100,> 100,> 100,,,,,,,,,,
NS(=O)(=O)c1ccc(NS(=O)(=O)c2ccc(NC(=O)N(c3ccccc3)c3ccccc3)cc2)cc1,> 100 µM,,> 100,> 100,> 100,> 100,,> 100,> 100,> 100,,,,,,,> 100,,,
Nc1nn2cc(-c3ccccc3)[n+](CC(=O)c3ccccc3)c2s1,> 100 µM,> 100,> 100,35.4,> 100,50.6,,55.9,29.3,51.6,42.3,,,,,,26.1,,,
CC1CC/C(=C\c2ccc(F)cc2)C2=C1C(c1ccc(F)cc1)NC(=S)N2 (stereo not given),98.7 µM,> 100,> 100,> 100,> 100,> 100,,> 100,> 100,> 100,> 100,,,,,,,,,
O=C(CSCC(=O)N/N=C\c1cccc(Br)c1)N/N=C\c1cccc(Br)c1,,> 100,66.7,23.5,,37.9,39.4,77.4,> 100,30.1,50.8,,,,,,51.9,,,
CN(C)CCSc1nccc(-c2ccc(-c3ccnc(SCCN(C)C)n3)s2)n1,29.6 µM,6.01,10.3,11.9,,22,28.2,18.1,21.7,28.3,20.4,,,,,,33.5,,,
O=S1(=O)OCCOS(=O)(=O)C1S(=O)(=O)c1cccc2ccccc12,,> 100,> 100,> 100,> 100,,,> 100,> 100,> 100,,,,,,,,,,
CCN(CC)CCC1(C(=O)OC)SCCc2ccc(C)cc21 (stereo not given),> 100 µM,,,> 100,> 100,> 100,> 100,> 100,> 100,> 100,> 100,,,,,,> 100,,,
CCOC(=O)CCN1C(=O)c2c(NC(=O)C(=O)O)cccc2S1(=O)=O,> 100 µM,> 100,> 100,> 100,> 100,> 100,,> 100,> 100,> 100,,,,,,,> 100,,,
O=c1cc(-c2ccccc2)[nH]c2c(F)ccc(F)c12,,> 100,> 100,> 100,,> 100,59,> 100,> 100,> 100,> 100,,,,,,> 100,,,
Cc1cc(C)c(N)c(CO)c1,0.231 µM and 0.409 µM,,> 100,> 100,> 100,> 100,> 100,> 100,> 100,> 100,> 100,,12.5 µM and 38.2 µM,,,> 100 µM and 42.5 µM,> 100,,,0.0675 µM and 0.183 µM
Cc1nc2ccccc2nc1N1CCCC1,> 100 µM,,> 100,> 100,> 100,> 100,> 100,> 100,> 100,> 100,,,,,,,> 100,,,
Cn1c(-c2cccs2)cc(-c2ccsc2)c1-c1ccsc1,> 100 µM,,> 100,,> 100,> 100,> 100,> 100,> 100,> 100,> 100,,,,,,> 100,,,
C[S+](C)C1(c2ccccc2)C(=O)c2ccccc2C1=O,> 100 µM,> 31.6,> 100,> 72.7,,> 100,> 89.2,> 100,> 100,> 100,> 68.1,,,,,,> 68.7,,,
CO/C=C(/C(=O)OC)c1ccccc1[C@H]1C[C@@H]1c1ccccc1,87.2 µM,63.3,56.5,,71.9,82.5,,,27.6,> 100,42.7,,,,,,32,,,
CCOC(=O)N1c2c(c3ccccc3n2C(=O)OCC)C(=O)C(OC)N1C(=O)OCC (stereo not given),88.6 µM,49.8,85.5,38.8,> 100,,,> 100,28.9,> 100,74.7,,,,,,41.2,,,
Oc1[nH]c2ccccc2c1N=NC(=S)NCc1ccccn1,7.51 µM,,> 43,15.3,19.9,3.84,6.6,22.3,13.6,14.9,5.06,,,,,,14.7,,,
COc1ccc(-c2nc3ncccn3c2-c2ccc(S(C)(=O)=O)cc2)cc1,,> 100,> 100,> 100,,> 100,> 100,> 100,> 100,> 100,> 100,,,,,,,,,
c1ccc(C2C3=C(CCCC3)Nc3nnnn32)cc1 (stereo not given),> 100 µM,> 100,,> 100,> 100,90.8,,> 100,> 100,> 100,> 100,,,,,,,,,
